Earlier results, collected in US11497789B2, “Formulations of vancomycin” (SciDose Pharma LLC, priority 2016, dated 2022).

Details: after reconstitution of the lyophilized product

## CN[C@H](CC(C)C)C(=O)N[C@H]1C(=O)N[C@@H](CC(N)=O)C(=O)N[C@H]2C(=O)N[C@H]3C(=O)N[C@H](C(=O)N[C@H](C(=O)O)c4cc(O)cc(O)c4-c4cc3ccc4O)[C@H](O)c3ccc(c(Cl)c3)Oc3cc2cc(c3O[C@@H]2O[C@H](CO)[C@@H](O)[C@H](O)[C@H]2O[C@H]2C[C@](C)(N)[C@H](O)[C@H](C)O2)Oc2ccc(cc2Cl)[C@H]1O [Vancomycin]
  time stable in water after reconstitution: approximately 24 hours
